Measurements published in PubChem BioAssay (NCI).
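Results reflect a 48-hour exposure of cells in 96-well plates to compound at five concentrations. TGI marks complete inhibition of growth.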

Columns and labels:
Assay in all cases: growth of human tumour cells (NCI), 48 h
[1] = test system: 786-0 renal
[2] = test system: A498 renal
[3] = test system: A549 NSCLC
[4] = test system: ACHN renal
[5] = test system: BT-549 breast
[6] = test system: CAKI-1 renal
[7] = test system: COLO 205 colon
[8] = test system: DU-145 prostate
[9] = test system: EKVX NSCLC
[10] = test system: HCT-116 colon
[11] = test system: HCT-15 colon
[12] = test system: HL-60(TB) leukemia
[13] = test system: HOP-62 NSCLC
[14] = test system: HOP-92 NSCLC
[15] = test system: HS 578T breast
[16] = test system: HT29 colon
[17] = test system: IGROV1 ovarian
[18] = test system: K-562 leukemia
[19] = test system: KM12 colon
[20] = test system: LOX IMVI melanoma
[21] = test system: M14 melanoma
[22] = test system: MALME-3M melanoma
[23] = test system: MCF7 breast
[24] = test system: MDA-MB-231 breast
[25] = test system: MDA-MB-435
[26] = test system: MDA-N
[27] = test system: MOLT-4 leukemia
[28] = test system: NCI-H226 lung
[29] = test system: NCI-H23 lung
[30] = test system: NCI-H522 lung
[31] = test system: NCI/ADR-RES ovarian
[32] = test system: OVCAR-3 ovarian
[33] = test system: OVCAR-4 ovarian
[34] = test system: OVCAR-5 ovarian
[35] = test system: OVCAR-8 ovarian
[36] = test system: PC-3 prostate
[37] = test system: RPMI-8226 leukemia
[38] = test system: RXF 393 renal
[39] = test system: SF-268 CNS
[40] = test system: SF-295 CNS
[41] = test system: SF-539 CNS
[42] = test system: SK-MEL-2 melanoma
[43] = test system: SK-MEL-28 melanoma
[44] = test system: SK-MEL-5 melanoma
[45] = test system: SK-OV-3 ovarian
[46] = test system: SN12C renal
[47] = test system: SNB-19 CNS
[48] = test system: SR leukemia
[49] = test system: SW-620 colon
[50] = test system: T-47D breast
[51] = test system: TK-10 renal
[52] = test system: U251 CNS
[53] = test system: UACC-257 melanoma
[54] = test system: UACC-62 melanoma
[55] = test system: UO-31 renal
[56] = test system: NCI-H460 lung
[57] = test system: SNB-75 CNS

In the case of `O=C1C2SC34c5c2c2ccccc2n5CCC3CCCN14` (stereo unspecified), the TGI [1] is reported as greater than 100 µM, the TGI [2] is reported as greater than 100 µM and the TGI [3] is reported as greater than 100 µM. It also gave a TGI [4] greater than 100 µM, a TGI [5] greater than 100 µM and a TGI [6] greater than 100 µM. For the same compound, the TGI [7] was greater than 100 µM, the TGI [8] was greater than 100 µM and the TGI [9] was greater than 100 µM. For the same compound, the TGI [10] was greater than 100 µM, the TGI [11] was greater than 100 µM and the TGI [12] was greater than 100 µM. It also gave a TGI [13] greater than 100 µM, a TGI [14] greater than 100 µM and a TGI [15] greater than 100 µM. The TGI [16] was greater than 100 µM, the TGI [17] was greater than 100 µM and the TGI [18] was greater than 100 µM. For the same compound, the TGI [19] was greater than 100 µM, the TGI [20] was greater than 100 µM and the TGI [21] was greater than 100 µM. The TGI [22] was greater than 100 µM, the TGI [23] was greater than 100 µM and the TGI [24] was greater than 100 µM. The TGI [25] was greater than 100 µM, the TGI [26] was greater than 100 µM and the TGI [27] was greater than 100 µM. For the same compound, the TGI [28] was greater than 100 µM, the TGI [29] was greater than 100 µM and the TGI [30] was greater than 100 µM. It also gave a TGI [31] greater than 100 µM, a TGI [32] greater than 100 µM and a TGI [33] greater than 100 µM. The TGI [34] was greater than 100 µM, the TGI [35] was greater than 100 µM and the TGI [36] was greater than 100 µM. For the same compound, the TGI [37] was greater than 100 µM, the TGI [38] was greater than 100 µM and the TGI [39] was greater than 100 µM. For the same compound, the TGI [40] was greater than 100 µM, the TGI [41] was greater than 100 µM and the TGI [42] was greater than 100 µM. The TGI [43] was greater than 100 µM, the TGI [44] was greater than 100 µM and the TGI [45] was greater than 100 µM. It also gave a TGI [46] greater than 100 µM, a TGI [47] greater than 100 µM and a TGI [48] greater than 100 µM. The TGI [49] was greater than 100 µM, the TGI [50] was greater than 100 µM and the TGI [51] was 87 µM. For the same compound, the TGI [52] was greater than 100 µM, the TGI [53] was 95.5 µM and the TGI [54] was greater than 100 µM. For the same compound, the TGI [55] was greater than 100 µM.
With `Cc1ccc(S(=O)(=O)Nc2ccccc2C=O)cc1` the TGI [1] was 35.9 µM, the TGI [2] was 92.2 µM and the TGI [3] was greater than 100 µM. It also gave a TGI [4] of 46.7 µM, a TGI [5] of 58.8 µM and a TGI [6] greater than 100 µM. It also gave a TGI [7] of 33.2 µM, a TGI [8] greater than 100 µM and a TGI [9] of 61.1 µM. The TGI [10] was 28 µM, the TGI [11] was 31.6 µM and the TGI [12] was 27.6 µM. It also gave a TGI [13] of 85 µM, a TGI [14] of 13.1 µM and a TGI [15] of 59.6 µM. It also gave a TGI [16] of 49.3 µM, a TGI [17] of 38.3 µM and a TGI [18] of 60.8 µM. For the same compound, the TGI [19] was 33.5 µM, the TGI [20] was 27.5 µM and the TGI [21] was 54.7 µM. It also gave a TGI [22] of 46.1 µM, a TGI [23] of 35.2 µM and a TGI [24] of 41 µM. For the same compound, the TGI [25] was 34.9 µM, the TGI [26] was 42.9 µM and the TGI [27] was 34.5 µM. It also gave a TGI [28] of 41.5 µM, a TGI [29] of 66.8 µM and a TGI [56] of 47 µM. For the same compound, the TGI [30] was 82.1 µM, the TGI [31] was 59 µM and the TGI [32] was 60.1 µM. For the same compound, the TGI [33] was greater than 100 µM, the TGI [34] was 67 µM and the TGI [35] was 34.1 µM. It also gave a TGI [36] of 35.6 µM, a TGI [37] of 36 µM and a TGI [38] greater than 100 µM. The TGI [40] was 85.6 µM, the TGI [41] was 5.08 µM and the TGI [42] was 30.4 µM. The TGI [43] was 64.7 µM, the TGI [44] was 25.1 µM and the TGI [45] was 94.8 µM. It also gave a TGI [46] of 45 µM, a TGI [47] of 75 µM and a TGI [57] of 57.7 µM. For the same compound, the TGI [48] was 86.3 µM, the TGI [49] was 47.5 µM and the TGI [50] was 72.7 µM. The TGI [51] was 52.4 µM, the TGI [52] was 30.2 µM and the TGI [53] was 45.7 µM. For the same compound, the TGI [54] was 27 µM and the TGI [55] was 26.8 µM.
